Laboratory results from patent publication US7521448B2, “N-substituted benzimidazolyl c-Kit inhibitors” (OSI Pharmaceuticals, Inc., priority 2003, dated 2009).
Structures can show the parent of a compound that is named as a salt.

Assays:
[1] = target: T1, wild-type c-Kit receptor protein endogenously expressed in H526 cells (Homo sapiens, UniProt P10721); experiment: Assay for inhibition of c-Kit in intact cells (cell-based ELISA of SCF-induced tyrosine phosphorylation); conditions: read-out: results in the assay above (IC50, inhibition of SCF-induced tyrosine phosphorylation of c-Kit)
T1 construct: wild-type c-Kit receptor protein that is endogenously expressed in H526 cells; host or cells: H526 human small cell lung cancer cells
T1 sequence (P10721 26-976): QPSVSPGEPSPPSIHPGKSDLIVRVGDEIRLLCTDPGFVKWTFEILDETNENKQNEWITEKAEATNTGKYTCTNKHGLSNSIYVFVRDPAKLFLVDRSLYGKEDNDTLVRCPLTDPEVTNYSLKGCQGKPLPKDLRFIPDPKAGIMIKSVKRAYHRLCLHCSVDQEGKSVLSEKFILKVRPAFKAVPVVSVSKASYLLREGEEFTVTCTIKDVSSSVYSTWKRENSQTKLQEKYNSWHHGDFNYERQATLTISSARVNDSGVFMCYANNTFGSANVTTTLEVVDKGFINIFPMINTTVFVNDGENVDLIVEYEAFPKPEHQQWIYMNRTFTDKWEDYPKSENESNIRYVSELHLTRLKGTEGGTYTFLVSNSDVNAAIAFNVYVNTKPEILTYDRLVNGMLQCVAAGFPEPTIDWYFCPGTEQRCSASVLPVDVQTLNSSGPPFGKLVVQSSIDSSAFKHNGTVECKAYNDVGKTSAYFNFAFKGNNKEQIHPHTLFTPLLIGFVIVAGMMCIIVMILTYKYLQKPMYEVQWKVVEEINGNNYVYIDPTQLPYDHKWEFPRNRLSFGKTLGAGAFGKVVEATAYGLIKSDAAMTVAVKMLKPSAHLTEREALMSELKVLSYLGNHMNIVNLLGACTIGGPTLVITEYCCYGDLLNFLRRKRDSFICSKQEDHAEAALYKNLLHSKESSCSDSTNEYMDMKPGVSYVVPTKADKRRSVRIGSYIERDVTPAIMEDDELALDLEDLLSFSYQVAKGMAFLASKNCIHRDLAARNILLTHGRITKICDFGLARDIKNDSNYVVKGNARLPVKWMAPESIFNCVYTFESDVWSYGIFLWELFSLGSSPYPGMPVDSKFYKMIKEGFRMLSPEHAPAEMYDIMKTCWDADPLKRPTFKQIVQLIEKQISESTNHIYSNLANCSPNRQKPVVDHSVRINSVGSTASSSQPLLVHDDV
Method: I. Assay for Inhibition of c-Kit in Intact Cells
The ability of compounds to inhibit the tyrosine kinase activity of c-Kit was determined in a cell-based ELISA assay using the H526 cell line (ATCC # CRL-5811), which was originally derived from a human small cell lung cancer. The assay determines the ability of compounds to block ligand-stimulated tyrosine phosphorylation of the wild-type c-Kit receptor protein that is endogenously expressed in H526 cells. Cells are pre-incubated with compounds at various concentrations prior to addition of stem cell factor (SCF), the ligand for the c-Kit receptor tyrosine kinase. […] The phosphotyrosine content of the receptor protein is then monitored by quantitation of the degree of binding of an antibody that recognizes only the phosphorylated tyrosine residues within the captured protein. The antibody used has a reporter enzyme (e.g. horseradish peroxidase, HRP) covalently attached, such that binding of antibody to phosphorylated c-Kit can be determined quantitatively by incubation with an appropriate HRP substrate. […]
Comparison of the assay signals obtained in the presence of compound with those of the positive and negative controls (cells incubated in the presence or absence of SCF, with no compound added), allows the degree of inhibition of c-Kit receptor tyrosine phosphorylation to be determined over a range of compound concentrations. […]

[2] = tested on: MO7e human leukemia cells; conditions: cited from earlier work
[3] = tested on: MO7e human leukemia cells; conditions: cited from earlier work; remark: listed apart in the source

IC50 [1] [µM]	Compound	Kit ligand-stimulated growth of MO7e human leukemia cells ([2]; Kit ligand-stimulated)	apoptosis ([2]; under Kit ligand-stimulated conditions, MO7e cells)	GM-CSF stimulated growth of MO7e human leukemia cells [3]
> 10	O=C(NCc1cccnc1)c1ccc2c(c1)ncn2-c1ccc(OCCOc2ncc(C(F)(F)F)cc2Cl)cc1 [Compound H13, N-Pyridin-3-ylmethyl-1-{4-[2-(3-chloro-5-trifluoromethylpyridin-2-yloxy)ethoxy]phenyl}-1H-benzimidazole-5-carboxamide]	–	–	–
> 10	O=C(NCc1cccnc1)c1ccc2c(c1)ncn2-c1cccc(NS(=O)(=O)c2cccc(Cl)c2)c1 [Compound Q5, 1-(3-{[(3-Chlorophenyl)sulfonyl]amino}phenyl)-N-pyridin-3-ylmethyl-1H-benzimidazole-5-carboxamide]	–	–	–
–	Cc1ccc(NC(=O)c2ccc(CN3CCN(C)CC3)cc2)cc1Nc1nccc(-c2cccnc2)n1 [Gleevec™, imatinib mesylate]	inhibited	induces apoptosis	not affected
